Experiment [1] has as its system HCV replicon (BB7 sequence) in Huh-7-Clone A cells. Description: HCV replicon assay: ELISA of NS5A protein in replicon-containing cells (Inhibition of Viral RNA Replication). In kind it is cell-based. The settings on record: read-out: Replicon. The gist of the method: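 EC50 taken from an 8-point serially diluted dose curve, with NS5A level as read-out: fixed cells probed with primary monoclonal and HRP-conjugated secondary, TMB developed 30 min, OD 650 nm. Compound exposure 72 h in Huh-7-Clone A replicon cells (BB7 sequence).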
On the technique in general: A replicon is a self-replicating genome or part of one, used to study replication in cells.

The target in experiment [2] is T1, HCV NS5B (Hepatitis C virus genotype 1b, UniProt Q9WMX2).
T1 construct: fusion protein, of which the carboxyl terminal 21 amino acids were removed to enhance its solubility; His tag (GSHHHHHH); made in house; host or cells: E. coli
Kind of experiment: Inhibition of viral RNA-dependent RNA polymerase (RdRp), in vitro biochemical assay. Set-up: species or system HCV genotype 1b virus (BB7). To be noted: read-out: HCV pol-BB7 IC50. The method in brief: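 IC50 values are the concentrations that halve in vitro RNA synthesis by HCV NS5B polymerase. The enzyme was a C-terminally truncated (Δ21), His-tagged genotype 1b (BB7 consensus) protein purified from E. coli.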

Where [3] appears, read: Hepatitis C virus, ranges of EC50 in HCV replicon assay.
Where [4] appears, read: Hepatitis C virus, HCV replicon, range of EC50.
[5] abbreviates: HCV NS5B RdRp, BB7, reported as range class.
The mark [6] stands for this setting: Hepatitis C virus, Huh-7-Clone A, NS5A ELISA, 72-hour incubation, ranges of EC50.
Setting [7] is: purified His-tagged NS5B (BB7), carboxyl terminal 21 amino acids removed.
[8] abbreviates: Hepatitis C virus, HCV replicon assay, ranges of 50% effective concentration (EC50).
Where [9] appears, read: HCV NS5B polymerase, BB7 (genotype 1b), values given as range classes A-D.
[10] abbreviates: Hepatitis C virus, HCV replicon assay, ranges of EC50.
Setting [11] is: HCV NS5B RdRp, BB7, class symbols A-D.
[12] abbreviates: ranges of EC50 in HCV replicon assay.

pEC50, pIC50: −log10 of the molar value. Read-outs that look alike come from different tables or passages of the source.

Broadly, the pIC50 is the negative decadic logarithm of the IC50, by convention in mol/L.

Regarding `CNC(=O)c1c(-c2ccc(F)cc2)oc2cc(N3CCC(O)C3)c(OC(C)C)cc12` (stereo not drawn) [Example 110], the pEC50 in experiment [1] (setting [3]) is more than 6.00. Besides, the pIC50 in experiment [2] (HCV NS5B RdRp, BB7 genotype 1b) is not below 6.30.
With `CNC(=O)c1c(-c2ccc(F)cc2)oc2cc(N3CCOCC3)c(OCc3csc(C)n3)cc12` [Example 201, 2-(4-Fluoro-phenyl)-5-(2-methyl-thiazol-4-ylmethoxy)-6-morpholin-4-yl-benzofuran-3-carboxylic acid methylamide], the pEC50 in experiment [1] (setting [4]) is more than 6.00. In addition, in experiment [2] (setting [5]), the pIC50 was not below 6.30.
Regarding `CNC(=O)c1c(-c2cccs2)oc2ccc(OC)cc12` [Example 88, 5-Methoxy-2-thiophen-2-yl-benzofuran-3-carboxylic acid methylamide], in experiment [1] (setting [6]), the pEC50 is more than 4.52. Further, the pIC50 in experiment [2] (setting [7]) is 5.30 to 6.30.
For the molecule `CNC(=O)c1c(-c2ccc(F)cc2)oc2cc(N3CCOCC3)c(OCC3CC3)cc12` [Example 125, 5-Cyclopropylmethoxy-2-(4-fluoro-phenyl)-6-morpholin-4-yl-benzofuran-3-carboxylic acid methylamide], in experiment [1] (setting [3]), the pEC50 was more than 6.00. Besides, the pIC50 in experiment [2] (HCV NS5B RdRp, BB7 genotype 1b) is not below 6.30.
With `CNC(=O)c1c(-c2ccc(F)cc2)oc2cc(N(C)S(C)(=O)=O)c(OCC(=O)Nc3nc(C)c(C)s3)cc12` [Example 417, 5-[(4,5-Dimethyl-thiazol-2-ylcarbamoyl)-methoxy]-2-(4-fluoro-phenyl)-6-(methanesulfonyl-methyl-amino)-benzofuran-3-carboxylic acid methylamide], in experiment [1] (setting [8]), the pEC50 is more than 6.00. Besides, the pIC50 in experiment [2] (setting [9]) was not below 6.30.
With `CNC(=O)c1c(-c2ccc(F)cc2)oc2ccc(C)cc12` [Example 10, 5-Methyl-2-(4-fluoro-phenyl)benzofuran-3-carboxylic acid methylamide], the pEC50 in experiment [1] (setting [6]) was more than 5.00. For the same molecule, in experiment [2] (setting [7]), the negative-log IC50 (pIC50) was 5.30 to 6.30.
In the case of `CNC(=O)c1c(-c2ccc(F)cc2)oc2cc(C(C)(C)O)c(OC(C)C)cc12` [Example 202, 2-(4-Fluoro-phenyl)-6-(1-hydroxy-1-methyl-ethyl)-5-isopropoxy-benzofuran-3-carboxylic acid methylamide], in experiment [1] (setting [4]), the pEC50 was more than 6.00. Besides, the pIC50 in experiment [2] (setting [5]) is not below 6.30.
As to `CNC(=O)c1c(-c2ccc(F)cc2)oc2cc(N(C)S(C)(=O)=O)c(OCc3ccc(C(=O)OC)cc3)cc12` [Example 305, 4-[2-(4-Fluoro-phenyl)-6-(methanesulfonyl-methyl-amino)-3-methylcarbamoyl-benzofuran-5-yloxymethyl]-benzoic acid methyl ester], the pEC50 in experiment [1] (setting [10]) was more than 6.00. Further, the pIC50 in experiment [2] (setting [11]) is not below 6.30.
Take `CNC(=O)c1c(-c2ccc(F)cc2)oc2cc(N(C)S(C)(=O)=O)c(OCc3ccc(OC)cc3)cc12` [Example 327, 2-(4-Fluoro-phenyl)-6-(methanesulfonyl-methyl-amino)-5-(4-methoxy-benzyloxy)-benzofuran-3-carboxylic acid methylamide]: the pEC50 in experiment [1] (setting [10]) is more than 6.00. In addition, the pIC50 in experiment [2] (setting [11]) is not below 6.30.
Regarding `CNC(=O)c1c(-c2ccc(F)cc2)oc2cc(N3CCSCC3)c(OC(C)C)cc12` [Example 186, 2-(4-Fluoro-phenyl)-5-isopropoxy-6-thiomorpholin-4-yl-benzofuran-3-carboxylic acid methylamide], in experiment [1] (setting [4]), the pEC50 is more than 6.00. Besides, in experiment [2] (setting [5]), the pIC50 was not below 6.30.
Turning to `CNC(=O)c1c(-c2ccc(F)cc2)oc2cc(N(C3CCCC3)S(C)(=O)=O)c(OC(C)C)cc12` [Example 163, 6-(Cyclopentyl-methanesulfonyl-amino)-2-(4-fluoro-phenyl)-5-isopropoxy-benzofuran-3-carboxylic acid methylamide], the pEC50 in experiment [1] (setting [3]) is more than 6.00. In addition, the pIC50 in experiment [2] (HCV NS5B RdRp, BB7 genotype 1b) is not below 6.30.
Take `CNC(=O)c1c(-c2ccc(F)cc2)oc2cc(-c3ccnn3C)c(OC(C)C)cc12` [Example 231, 2-(4-Fluoro-phenyl)-5-isopropoxy-6-(2-methyl-2H-pyrazol-3-yl)-benzofuran-3-carboxylic acid methylamide]: the pEC50 in experiment [1] (setting [4]) was more than 6.00. Further, the pIC50 in experiment [2] (setting [5]) was not below 6.30.
For the molecule `CNC(=O)c1c(-c2ccc(F)cc2)oc2cc(N(C)S(C)(=O)=O)c(OCc3ccncc3)cc12` [Example 328, 2-(4-Fluoro-phenyl)-6-(methanesulfonyl-methyl-amino)-5-(pyridin-4-ylmethoxy)-benzofuran-3-carboxylic acid methylamide], the pEC50 in experiment [1] (setting [10]) is more than 6.00. Also, the pIC50 in experiment [2] (setting [11]) is not below 6.30.
With `CNC(=O)c1c(-c2ccc(F)cc2)oc2cc(NCC3CCCO3)c(OC(C)C)cc12` (stereo not drawn) [Example 123, 2-(4-Fluoro-phenyl)-5-isopropoxy-6-[(tetrahydro-furan-2-ylmethyl)-amino]-benzofuran-3-carboxylic acid methylamide], the pEC50 in experiment [1] (setting [3]) is more than 5.00. For the same molecule, the pIC50 in experiment [2] (HCV NS5B RdRp, BB7 genotype 1b) is not below 6.30.
Regarding `CNC(=O)c1c(-c2ccc(F)cc2)oc2cc(NS(C)(=O)=O)c(-c3ccco3)cc12` [Example 426, 2-(4-Fluoro-phenyl)-5-furan-2-yl-6-methanesulfonylamino-benzofuran-3-carboxylic acid methylamide], in experiment [1] (setting [8]), the pEC50 was more than 6.00. Besides, the negative-log IC50 (pIC50) in experiment [2] (setting [9]) is not below 6.30.
On to `CNC(=O)c1c(-c2ccc(F)cc2)oc2cc(N(CC(C)C)S(C)(=O)=O)c(O)cc12` [Example 326, 2-(4-Fluoro-phenyl)-5-hydroxy-6-(isobutyl-methanesulfonyl-amino)-benzofuran-3-carboxylic acid methylamide], for which the pEC50 in experiment [1] (setting [10]) is more than 4.52. Besides, the pIC50 in experiment [2] (setting [11]) was 5.30 to 6.30.
For the molecule `CNC(=O)c1c(-c2ccc(F)cc2)oc2cc(-c3cc(COC)on3)c(OC)cc12` [Example 313, 2-(4-Fluoro-phenyl)-5-methoxy-6-(5-methoxymethyl-isoxazol-3-yl)-benzofuran-3-carboxylic acid methylamide], in experiment [1] (setting [10]), the pEC50 was more than 6.00. Besides, the pIC50 in experiment [2] (setting [11]) is not below 6.30.
As to `CNC(=O)c1c(-c2ccc(F)cc2)oc2cc(N(C)S(C)(=O)=O)c(OCCn3cccn3)cc12` [Example 404, 2-(4-Fluoro-phenyl)-6-(methanesulfonyl-methyl-amino)-5-(2-pyrazol-1-yl-ethoxy)-benzofuran-3-carboxylic acid methylamide], in experiment [1] (setting [8]), the pEC50 was more than 6.00. Further, in experiment [2] (setting [9]), the pIC50 was not below 6.30.
As for `CNC(=O)c1c(-c2ccc(F)cc2)oc2cc(CN(C)S(C)(=O)=O)c(OC(C)C)cc12` [Example 249, 2-(4-Fluoro-phenyl)-5-isopropoxy-6-[(methanesulfonyl-methyl-amino)-methyl]-benzofuran-3-carboxylic acid methylamide], the pEC50 in experiment [1] (setting [4]) was more than 5.00. Moreover, the pIC50 in experiment [2] (setting [5]) was not below 6.30.
As for `CNC(=O)c1c(-c2ccc(F)cc2)oc2cc(N3CCC(F)CC3)c(OC(C)C)cc12` [Example 171, 2-(4-Fluoro-phenyl)-6-(4-fluoro-piperidin-1-yl)-5-isopropoxy-benzofuran-3-carboxylic acid methylamide], the pEC50 in experiment [1] (setting [3]) was more than 6.00. Besides, the pIC50 in experiment [2] (HCV NS5B RdRp, BB7 genotype 1b) was 5.30 to 6.30.
As to `CNC(=O)c1c(-c2ccc(F)cc2)oc2cc(-c3cc(C)n(C)n3)c(OC(C)C)cc12` [Example 248, 6-(1,5-Dimethyl-1H-pyrazol-3-yl)-2-(4-fluoro-phenyl)-5-isopropoxy-benzofuran-3-carboxylic acid methylamide], in experiment [1] (setting [4]), the pEC50 was more than 5.00. The pIC50 in experiment [2] (setting [5]) was 5.30 to 6.30.
Regarding `CNC(=O)c1c(-c2ccc(F)cc2)oc2cc(N3CCOCC3)c(OC)cc12` [Example 103, 2-(4-Fluoro-phenyl)-5-methoxy-6-morpholin-4-yl-benzofuran-3-carboxylic acid methylamide], in experiment [1] (setting [3]), the pEC50 was more than 6.00. The pIC50 in experiment [2] (HCV NS5B RdRp, BB7 genotype 1b) is not below 6.30.
Regarding “2-(4-Bromo-phenyl)-5-isopropoxy-benzofuran-3-carboxylic acid methylamide [Example 104]”, the pEC50 in experiment [1] (setting [12]) is more than 5.00. The pIC50 in experiment [2] (HCV NS5B RdRp, BB7 genotype 1b) is not below 6.30.
Take `CNC(=O)c1c(-c2ccc(F)cc2)oc2cc(C)c(OC(C)C(=O)O)cc12` (stereo not drawn) [Example 97, 2-[2-(4-Fluoro-phenyl)-6-methyl-3-methylcarbamoyl-benzofuran-5-yloxy]-propionic acid]: the pEC50 in experiment [1] (setting [3]) was less than 4.52. In experiment [2] (HCV NS5B RdRp, BB7 genotype 1b), the negative logarithm of the IC50 (pIC50) is 4.52 to 5.30.
With `CNC(=O)c1c(-c2ccc(F)cc2)oc2cc(N(C)S(C)(=O)=O)c(OCc3cccc(C#N)c3)cc12` [Example 356, 5-(3-Cyano-benzyloxy)-2-(4-fluoro-phenyl)-6-(methanesulfonyl-methyl-amino)-benzofuran-3-carboxylic acid methylamide], in experiment [1] (setting [10]), the pEC50 was more than 6.00. In addition, the pIC50 in experiment [2] (HCV NS5B RdRp, BB7, activity class) is not below 6.30.
In the case of `CNC(=O)c1c(-c2ccc(F)cc2)oc2cc(N3CCC3)c(OC(C)C)cc12` [Example 109], the pEC50 in experiment [1] (setting [12]) was more than 6.00. The pIC50 in experiment [2] (HCV NS5B RdRp, BB7 genotype 1b) is not below 6.30.
Turning to `CNC(=O)c1c(-c2ccc(F)cc2)oc2cc(-c3ncnn3C)c(OC)cc12` [Example 323, 2-(4-Fluoro-phenyl)-5-methoxy-6-(2-methyl-2H-[1,2,4]triazol-3-yl)-benzofuran-3-carboxylic acid methylamide], the pEC50 in experiment [1] (setting [10]) was more than 6.00. Besides, the pIC50 in experiment [2] (setting [11]) was not below 6.30.

For the origin of these results see US7265152B2 (ViroPharma Incorporated, priority 2002, dated 2007).
